Where two headings read alike, the source gives them in different places.
Tested on: KM12 cells
Assay: Proliferation of KM12 cells (CellTiter-Glo)
Format: cell-based, human
Conditions: Homo sapiens
Source text: KM12 is a human colon cancer cell line in which NTRK1 is highly expressed, and gene fusion occurs with TPM3 to form TPM3-NTRK1. • [Test method]: Promega's CellTiter-Glo® Luminescent Cell Viability Assay kit was used to evaluate the inhibitory activity of the compounds on the proliferation of KM12 cells. • [Instrument]: Spectramax M3 multifunctional microplate reader from Molecular Devices. • [Test materials]: KM12 cell line (ATCC, item number CRL-12496), 96-well transparent flat-bottomed black-walled cell culture plate (Corning, item number #3603), RPMI-1640 media (GE, cat #SH30027.01), Fetal Bovine Serum FBS (Thermo Fisher, cat #10099-141), CellTiter-Glo® Luminescent Cell Viability Assay Kit (Promega, cat #G7572), PBS (Solarbio, cat #P1020), Trypsin (Thermo Fisher, cat #25200072), DMSO (Sigma, cat #D2650). • [Experimental procedure]: When resuscitating KM12 cells, the freezing tube was quickly shaken in a 37° C. water bath to melt within 1 minute. The thawed cell suspension was mixed uniformly with RPMI1640 medium containing 10% FBS, centrifuged at 1000 rpm for 5 minutes, and the supernatant discarded. 5 mL of complete medium (RPMI1640 medium with 10% FBS) was taken to resuspend the cell pellets, charged into a cell culture flask with a bottom area of 25 cm^2, and incubated in a cell incubator at 37° C., 95% humidity and 5% CO2. Cells were allowed to passage when the cell confluence rate reached about 80%. For cell passage, the old medium was discarded, and the cells were washed twice with PBS, and 0.5 mL trypsin was added to digest the cells. Upon dispersing into single cells and exfoliating from the bottom of the cell culture flask, 4.5 mL of new complete medium was added to terminate the digestion. After pipetting the cell suspension evenly, 1/5 of the cell suspension was kept and added with 4 mL of new complete medium, and after pipetting evenly, the cell flask was placed in the cell incubator for further culturing. Cell plating was performed when the cell confluence rate reached about 80% again. For cell plating, 1/5 of the cell suspension was kept for further culturing as in the cell passage method, and the remaining 4/5 of the cell suspension was placed in a 15 mL centrifuge tube, detected for cell viability by Trypan blue exclusion method to ensure that cell viability was above 90%. A cell suspension with a density of 3.33×10^4 viable cells/mL was prepared with complete medium, and 90 μL of such cell suspension was added to a 96-well cell culture plate to obtain a cell density of 3000 viable cells/mL in the cell culture plate. A control group containing no cells, no compound and only complete medium (i.e. culture medium control) and a control group containing no compound but containing cells (i.e. cell control) were set. The cell plate was placed in a cell incubator overnight.
The 10 mM compound stock solution in DMSO was first serially diluted with DMSO at a dilution factor of 3.16 times, to obtain 9 concentrations, and the 10th concentration was set as DMSO control without compound. Then, PBS was used to dilute the DMSO solutions of compounds of different concentrations, at a dilution factor of 100 times, so that the DMSO concentration in the compound solution of each concentration was 1%. Finally, 10 μL of each of the above solutions was added to the corresponding cell culture plate, so that the initial compound concentration was 10 μM, with the remaining concentrations being successively diluted at a dilution factor of 3.16 times, and the DMSO content in the cell culture plate was 0.1%.
The cell plate was placed in a cell incubator and cultured for 72 hours. For endpoint detection, the CellTiter-Glo reagent was melted, and the cell plate was moved to room temperature to equilibrate for 30 minutes, added with 100 μL of CellTiter-Glo for each well, and shaken on an orbital shaker for 5 minutes to fully lyse the cells. […]

[1] = KM12, Table 9, read-out: KM12 cell proliferation inhibitory activity (IC50)
[2] = KM12, 72 h, Table 1, 72 hours, read-out: KM-12, IC50
[3] = KM12, Table 1-2, separate test, read-out: KM-12, IC50

`Cc1ccc(C(=O)Nc2ccc(Oc3cc4cnn5c4c(c3-c3cn[nH]c3)CC5)c(F)c2)c(=O)n1-c1ccc(F)cc1` [Example 31, N-(4-((5-(1H-pyrazol-4-yl)-6,7-dihydropyrrolo[3,2,1-hi]-indazol-4-yl)oxy)-3-fluorophenyl)-1-(4-fluorophenyl)-6-methyl-2-oxo-1,2-dihydropyridine-3-carboxamide] showed an IC50 [1] of 0.071 µM.
`CC(C)Oc1ccc(C(=O)Nc2ccc(Oc3cc4cnn5c4c(c3-c3cn[nH]c3)CC5)c(F)c2)c(=O)n1-c1ccc(F)cc1` [Example 34, N-(4-((5-(1H-pyrazol-4-yl)-6,7-dihydropyrrolo[3,2,1-hi]-indazol-4-yl)oxy)-3-fluorophenyl)-1-(4-fluorophenyl)-6-isopropoxy-2-oxo-12-dihydropyrndine-3-carboxamide] showed an IC50 [1] of 0.037 µM.
For `CCn1ncc2cc(Oc3ccc(NC(=O)c4ccc(OC(C)C)n(-c5ccc(F)cc5)c4=O)cc3F)c(-c3cn[nH]c3)cc21` [Example 26, N-(3-fluoro-4-(1-ethyl-6-(1H-pyrazol-4-yl)-1H-indazol-5-yloxy)phenyl)-1-(4-fluorophenyl)-6-isopropoxy-2-oxo-1,2-dihydropyridine-3-carboxamide], the IC50 (KM12, Table 1-3, separate test, read-out: KM-12, IC50) was 0.018 µM.
For `CC(C)c1ccc(C(=O)Nc2ccc(Oc3cc4cnn(C)c4cc3-c3cn[nH]c3)c(F)c2)c(=O)n1-c1ccc(F)cc1` [Example 6, N-(3-fluoro-4-(1-methyl-6-(1H-pyrazol-4-yl)-1H-indazol-5-yloxy)phenyl)-1-(4-fluorophenyl)-6-isopropyl-2-oxo-1,2-dihydropyridine-3-carboxamide], the IC50 [2] was 0.0063 µM.
For `Cn1ncc2cc(Oc3ccc(NC(=O)c4ccc(OC5CC5)n(-c5ccc(F)cc5)c4=O)cc3F)c(-c3cn[nH]c3)cc21` [Example 15, N-(3-fluoro-4-(1-methyl-6-(1H-pyrazol-4-yl)-1H-indazol-5-yloxy)phenyl)-1-(4-fluorophenyl)-6-cyclopropoxy-2-oxo-1,2-dihydropyridine-3-carboxamide], the IC50 [3] was 0.017 µM.
`CC(C)Oc1ccc(C(=O)Nc2ccc(Oc3cc4cnn(C)c4cc3-c3cn[nH]c3)c(F)c2)c(=O)n1-c1ccc(F)cc1` [Example 16, N-(3-fluoro-4-(1-methyl-6-(1H-pyrazol-4-yl)-1H-indazol-5-yloxy)phenyl)-1-(4-fluorophenyl)-6-isopropoxy-2-oxo-1,2-dihydropyridine-3-carboxamide] gave an IC50 [3] of 0.007 µM.
`COc1ccc(C(=O)Nc2ccc(Oc3cc4cnn5c4c(c3-c3cn[nH]c3)CC5)c(F)c2)c(=O)n1-c1ccc(F)cc1` [Example 28, N-(4-((5-(1H-pyrazol-4-yl)-6,7-dihydropyrrolo[3,2,1-hi]-indazol-4-yl)oxy)-3-fluorophenyl)-1-(4-fluorophenyl)-6-methoxy-2-oxo-1,2-dihydropyidine-3-carboxamide] showed an IC50 [1] of 0.056 µM.
Molecule `O=C(Nc1cnn2ccc(N3CCC[C@@H]3c3cc(F)ccc3F)nc12)N1CC[C@H](O)C1` [LOXO-101, Larotrectinib, reference compound] has an IC50 [2] of 0.0083 µM.
Molecule `COc1ccc(C(=O)Nc2ccc(Oc3cc4cnn(C)c4cc3-c3cn[nH]c3)c(F)c2)c(=O)n1-c1ccc(F)cc1` [Example 12, N-(3-fluoro-4-(1-methyl-6-(1H-pyrazol-4-yl)-1H-indazol-5-yloxy)phenyl)-1-(4-fluorophenyl)-6-methoxy-2-oxo-1,2-dihydropyridine-3-carboxamide] has an IC50 (KM12, Table 1-1, separate test, read-out: KM-12, IC50) of 0.016 µM.
In the case of `Cn1ncc2cc(Oc3ccc(NC(=O)c4ccc(C(F)(F)F)n(-c5ccc(F)cc5)c4=O)cc3F)c(-c3cn[nH]c3)cc21` [Example 1, N-(3-fluoro-4-(1-methyl-6-(1H-pyrazol-4-yl)-1H-indazol-5-yloxy)phenyl)-1-(4-fluorophenyl)-6-trifluoromethyl-2-oxo-1,2-dihydmpyridine-3-carboxamide monomethanesulfonate], the IC50 [2] is reported as 0.0156 µM.
`Cn1ncc2cc(Oc3ccc(NC(=O)c4ccc(C5CC5)n(-c5ccc(F)cc5)c4=O)cc3F)c(-c3cn[nH]c3)cc21` [Example 2, N-(3-fluoro-4-(1-methyl-6-(1H-pyrazol-4-yl)-1H-indazol-5-yloxy)phenyl)-1-(4-fluorophenyl)-6-cyclopropyl-2-oxo-1,2-dihydmpyridine-3-carboxamide] showed an IC50 [2] of 0.0091 µM.
